From patent US9073975B2, “Cyclic peptides, their preparation and their use as inhibitors of the platelet adhesion” (SANOFI, priority 2010, dated 2015)
pIC50: −log10 of the molar value. Starred links: 1 amine or outer side, 2 acyl side, 3 side chain; linkers in the order of their positions; H or OH if unused. Positions of bridges follow the written chain, without caps; N, C: chain ends. Non-standard residues stand in square brackets, D forms with d. Residues, ends and D or L forms follow the SMILES beside them. ξ: configuration not given here. X1 = CSCC[C@H](NN[C@@H](CCCNC(=N)N)C(=O)C(=O)[C@H](CCC(=O)O)N[*:2])C(=O)[*:1]; NHCH2(1,3-C6H4)CH2CO = O=C(Cc1cccc(CN[*:1])c1)[*:2]; X3 = O=C(Cc1ccc(CN[*:1])cc1)[*:2]; Cha = N[C@@H](CC1CCCCC1)C(=O)O; Chg = N[C@H](C(=O)O)C1CCCCC1; Nle = CCCC[C@H](N)C(=O)O; Nva = CCC[C@H](N)C(=O)O; Aoc = NCCCCCCCC(=O)O; Ahp = NCCCCCCC(=O)O; Ahx = NCCCCCC(=O)O; ξA = CC(N)C(=O)O

molecular target: T1, recombinant human vWF-A1 domain (Homo sapiens, UniProt P07359); assay: Static human platelet adhesion to recombinant human vWF-A1 domain; type: cell-based; conditions: not given
T1 construct: whole blood drawn from voluntary donors; made in house; host or cells: E. coli (vWF-A1); washed platelets from human donor blood (GPIb, endogenous)
T1 sequence (P07359 17-652): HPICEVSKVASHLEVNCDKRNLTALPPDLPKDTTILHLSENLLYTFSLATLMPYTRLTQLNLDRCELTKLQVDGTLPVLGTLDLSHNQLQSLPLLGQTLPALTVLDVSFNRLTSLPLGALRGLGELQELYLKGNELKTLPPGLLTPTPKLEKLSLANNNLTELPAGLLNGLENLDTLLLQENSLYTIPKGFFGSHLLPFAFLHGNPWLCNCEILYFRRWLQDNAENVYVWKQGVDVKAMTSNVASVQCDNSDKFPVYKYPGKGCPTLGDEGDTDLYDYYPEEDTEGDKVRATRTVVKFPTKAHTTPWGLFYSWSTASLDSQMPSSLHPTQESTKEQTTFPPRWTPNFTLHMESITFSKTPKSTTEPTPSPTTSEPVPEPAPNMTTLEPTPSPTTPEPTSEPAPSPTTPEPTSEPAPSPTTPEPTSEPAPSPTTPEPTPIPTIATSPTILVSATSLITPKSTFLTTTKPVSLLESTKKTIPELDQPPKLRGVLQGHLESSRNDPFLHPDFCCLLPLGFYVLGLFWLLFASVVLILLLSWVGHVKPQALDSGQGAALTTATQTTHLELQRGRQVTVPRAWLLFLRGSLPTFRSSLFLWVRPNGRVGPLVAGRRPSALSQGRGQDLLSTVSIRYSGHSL
T1 sequence (P13224 26-206 partner): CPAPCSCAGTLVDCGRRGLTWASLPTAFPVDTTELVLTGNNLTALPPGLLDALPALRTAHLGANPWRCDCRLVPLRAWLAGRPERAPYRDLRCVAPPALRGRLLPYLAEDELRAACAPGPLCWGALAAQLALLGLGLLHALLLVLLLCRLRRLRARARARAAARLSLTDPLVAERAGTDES
T1 sequence (P14770 17-177 partner): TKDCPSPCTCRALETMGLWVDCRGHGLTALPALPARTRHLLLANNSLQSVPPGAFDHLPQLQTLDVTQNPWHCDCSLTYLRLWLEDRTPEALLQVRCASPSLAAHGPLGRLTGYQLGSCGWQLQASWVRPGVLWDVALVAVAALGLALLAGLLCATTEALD
Procedure: The activity of compounds of the formula I can be shown by procedures known in the art, for example by determining their inhibition of the binding of platelets to vWF A1 domain in an appropriate assay. To this end, assay plates can be coated with vWF-A1 domain. […] Then fluorescence-labeled thrombocytes are added and incubated for 90 minutes. In a complex washing procedure all non-bound thrombocytes are removed and the plates are measured, for example in a laser-based reader Acumen Explorer or a bulk reader like Spectramax. […] To assess the effect of compounds on the interaction of the GPIb complex on platelets with vWF, an assay system was used measuring binding of human platelets to recombinant human vWF-A1 domain under static conditions in the presence and absence of the compounds. […] Platelet rich plasma was carefully removed, transferred to a fresh container and spun down for 15 min at 120 g. Platelet rich plasma was carefully transferred again to fresh containers, PGE1 (0.5 μg/ml, Sigma) was added and the suspension was allowed to rest for 5 min. This was followed by another centrifugation step for 15 min at 360 g. The supernatant was discarded and the cell pellets were carefully resuspended in tyrode buffer (NaCl, 137 mM (Sigma S-3014); KCl, 2.7 mM (Sigma P-9541); NaHCO3,12 mM ([…] 31437); NaH2PO4×2H2O, 0.36 mM (Merck 6345); […] After 5 min of resting the suspension was spun down for 15 min at 300 g. The supernatant was discarded and the pellets were carefully resuspended in TBS buffer (Tris-HCl, 50 mM (Fluka 93371); NaCl, 120 mM (Sigma S-3014); KCl, 2.7 mM (Sigma P-9541); CaCl2, 0.05 mM (Sigma C-3306); MgCl2×6 H2O, 2 mM (Sigma M-2670); […] The platelet count was adjusted to 2×10^5 cells/μl, and the suspensions from individual donors were pooled at this stage. The platelets were allowed to rest for 30 min at room temperature before calcein AM (2.5 μM per 2×10^5 cells/μl (Molecular Probes C-3099)) was added. This was followed by 15 min incubation in the dark. Cells were diluted to 5×10^4 cells/μl and ReoPro (3 μg/ml (Centocor B. V., Leiden, N L)) was added, followed by a 10 min incubation period in the dark before adding the platelets to the assay plates. 96 well plates (Greiner hb, black, clear bottom, F, 655097) were coated with human recombinant vWF-A1 domain (1.5 μg/well, AA 475-706, expressed in E. coli) in Tris buffer (pH 7.4; Tris-HCl, 25 mM; NaCl, 150 mM) and incubated for 1 h at room temperature. After washing the wells 3× with TBS, blocking buffer (TBS with 5% BSA) was added followed by an incubation for 1 h. The wells were washed again 3× with TBS before 200 μl TBS were added to each well, preventing them from drying out. TBS was flicked out and serial dilutions of the test compound were added. The washed and calcein AM labeled thrombocytes were added to the wells (2.5×10^6 cells/well). Following an adhesion period of 1.5 h in the dark the wells were washed 3× with TBS. Measurement of fluorescence per well was performed in a SpectraMax M5 reader (Molecular Devices). From the raw data % inhibition and IC50 values were calculated.

Structure (SMILES)	pIC50
CSCC[C@@H]1NC(=O)[C@H](CCCNC(=N)N)NC(=O)[C@H](CCC(=O)O)NC(=O)[C@H]([C@@H](C)O)NC(=O)Cc2cccc(c2)CNC(=O)[C@H](CC(C)C)NC(=O)[C@H](CC(N)=O)NC(=O)[C@H](Cc2c[nH]cn2)NC(=O)[C@H](CC(C)C)NC(=O)[C@H](C)NC1=O [Example 2, Cyclo[Leu-His-Asn-Leu-NH-X4-X3-X2-X1-CO-Thr-Glu-Arg-Met-Ala]] (cyclo(ALHNL[NHCH2(1,3-C6H4)CH2CO]TERM))	> 6.00
CSCC[C@@H]1NC(=O)[C@H](CCCNC(=N)N)NC(=O)[C@H](CCC(=O)O)NC(=O)[C@H]([C@@H](C)O)NC(=O)Cc2ccc(cc2)CNC(=O)[C@H](CC(C)C)NC(=O)[C@H](CC(N)=O)NC(=O)[C@H](Cc2c[nH]cn2)NC(=O)[C@H](CC(C)C)NC(=O)[C@H](C)NC1=O [Example 3, Cyclo[Leu-His-Asn-Leu-NH-X4-X3-X2-X1-CO-Thr-Glu-Arg-Met-Ala]] (cyclo(ALHNL[X3]TERM))	5.00 to 6.00

same assay, conditions: washed calcein AM labeled human platelets, static conditions, 1.5 h adhesion; read-out: Activity (IC50 for inhibition of the binding of platelets to vWF A1 domain)

Structure (SMILES)	pIC50
CSCC[C@@H]1NN[C@@H](CCCNC(=N)N)C(=O)C(=O)[C@H](CCC(=O)O)NC(=O)[C@H]([C@@H](C)O)NC(=O)CCCCCCNC(=O)[C@H](CC(C)C)NC(=O)[C@H](CC(N)=O)NC(=O)[C@H](Cc2cnc[nH]2)NC(=O)[C@H](CC(C)C)NC(=O)C(C)NC1=O (stereo partly drawn) [Example 1, Cyclo[Leu-His-Asn-Leu-NH—(CH2)6—CO-Thr-Glu-Arg-Met-Ala]] ([ξA]LHNL[Ahp]T; linker N-C via X1)	> 6.00
CSCC[C@@H]1NC(=O)[C@H](CCCNC(=N)N)NC(=O)[C@H](CCC(=O)O)NC(=O)[C@H]([C@@H](C)O)NC(=O)[C@@H](NC(C)=O)CCCCNC(=O)[C@H](CC(C)C)NC(=O)[C@H](CC(N)=O)NC(=O)[C@H](Cc2c[nH]cn2)NC(=O)[C@H](CC(C)C)NC(=O)[C@H](C)NC1=O [Example 5, Cyclo[Leu-His-Asn-Leu-NH-X4-X3-X2-X1-CO-Thr-Glu-Arg-Met-Ala]] (Ac-KTERMALHNL; lactam 1-C)	5.00 to 6.00
CSCC[C@@H]1NC(=O)[C@H](CCCNC(=N)N)NC(=O)[C@H](CCC(=O)O)NC(=O)[C@H]([C@@H](C)O)NC(=O)CCCCCCCNC(=O)[C@H](CC(C)C)NC(=O)[C@H](CC(N)=O)NC(=O)[C@H](Cc2c[nH]cn2)NC(=O)[C@H](CC(C)C)NC(=O)[C@H](C)NC1=O [Example 6, Cyclo[Leu-His-Asn-Leu-NH—(CH2)7—CO-Thr-Glu-Arg-Met-Ala]] (cyclo(ALHNL[Aoc]TERM))	> 6.00
CSCC[C@@H]1NC(=O)[C@H](CCCCN)NC(=O)[C@H](CCC(=O)O)NC(=O)[C@H]([C@@H](C)O)NC(=O)CCCCCCNC(=O)[C@H](CC(C)C)NC(=O)[C@H](CC(N)=O)NC(=O)[C@H](Cc2c[nH]cn2)NC(=O)[C@H](CC(C)C)NC(=O)[C@H](C)NC1=O [Example 7, Cyclo[Leu-His-Asn-Leu-NH—(CH2)6—CO-Thr-Glu-Lys-Met-Ala]] (cyclo(ALHNL[Ahp]TEKM))	5.00 to 6.00
CSCC[C@@H]1NC(=O)[C@H](CCCNC(=N)N)NC(=O)[C@H](CCC(=O)O)NC(=O)[C@H](CC(=O)O)NC(=O)CCCCCCNC(=O)[C@H](CC(C)C)NC(=O)[C@H](CC(N)=O)NC(=O)[C@H](Cc2c[nH]cn2)NC(=O)[C@H](CC(C)C)NC(=O)[C@H](C)NC1=O [Example 10, Cyclo[Leu-His-Asn-Leu-NH—(CH2)6—CO-Asp-Glu-Arg-Met-Ala]] (cyclo(ALHNL[Ahp]DERM))	5.00 to 6.00
CSCC[C@@H]1NC(=O)[C@H](CCCNC(=N)N)NC(=O)[C@H](CCC(=O)O)NC(=O)[C@H]([C@@H](C)O)NC(=O)CCCCCNC(=O)[C@H](CC(C)C)NC(=O)[C@H](CC(N)=O)NC(=O)[C@H](Cc2c[nH]cn2)NC(=O)[C@H](CC(C)C)NC(=O)[C@H](C)NC1=O [Example 11, Cyclo[Leu-His-Asn-Leu-NH—(CH2)5—CO-Thr-Glu-Arg-Met-Ala]] (cyclo(ALHNL[Ahx]TERM))	5.00 to 6.00
CCCC[C@@H]1NC(=O)[C@H](C)NC(=O)[C@H](CCSC)NC(=O)[C@H](CCCNC(=N)N)NC(=O)[C@H](CCC(=O)O)NC(=O)[C@H]([C@@H](C)O)NC(=O)CCCCCCNC(=O)[C@H](CC(C)C)NC(=O)[C@H](CC(N)=O)NC(=O)[C@H](Cc2c[nH]cn2)NC1=O [Example 13, Cyclo[Nle-His-Asn-Leu-NH—(CH2)6—CO-Thr-Glu-Arg-Met-Ala]] (cyclo(A[Nle]HNL[Ahp]TERM))	5.00 to 6.00
CC[C@H](C)[C@@H]1NC(=O)[C@H](C)NC(=O)[C@H](CCSC)NC(=O)[C@H](CCCNC(=N)N)NC(=O)[C@H](CCC(=O)O)NC(=O)[C@H]([C@@H](C)O)NC(=O)CCCCCCNC(=O)[C@H](CC(C)C)NC(=O)[C@H](CC(N)=O)NC(=O)[C@H](Cc2c[nH]cn2)NC1=O [Example 14, Cyclo[Ile-His-Asn-Leu-NH—(CH2)6—CO-Thr-Glu-Arg-Met-Ala]] (cyclo(AIHNL[Ahp]TERM))	5.00 to 6.00
CSCC[C@@H]1NC(=O)[C@H](CCCNC(=N)N)NC(=O)[C@H](CCC(=O)O)NC(=O)[C@H]([C@@H](C)O)NC(=O)CCCCCCNC(=O)[C@H](CC(C)C)NC(=O)[C@H](CC(N)=O)NC(=O)[C@H](Cc2c[nH]cn2)NC(=O)[C@H](CC2CCCCC2)NC(=O)[C@H](C)NC1=O [Example 16, Cyclo[Cha-His-Asn-Leu-NH—(CH2)6—CO-Thr-Glu-Arg-Met-Ala]] (cyclo([Cha]HNL[Ahp]TERMA))	> 6.00
CC(C)C[C@@H]1NC(=O)[C@H](C)NC(=O)[C@H](CC2CCCCC2)NC(=O)[C@H](CCCNC(=N)N)NC(=O)[C@H](CCC(=O)O)NC(=O)[C@H]([C@@H](C)O)NC(=O)CCCCCCNC(=O)[C@H](CC(C)C)NC(=O)[C@H](CC(N)=O)NC(=O)[C@H](Cc2c[nH]cn2)NC1=O [Example 17, Cyclo[Leu-His-Asn-Leu-NH—(CH2)6—CO-Thr-Glu-Arg-Cha-Ala]] (cyclo(ALHNL[Ahp]TER[Cha]))	> 6.00
CC[C@H](C)[C@@H]1NC(=O)[C@H](CCCNC(=N)N)NC(=O)[C@H](CCC(=O)O)NC(=O)[C@H]([C@@H](C)O)NC(=O)CCCCCCNC(=O)[C@H](CC(C)C)NC(=O)[C@H](CC(N)=O)NC(=O)[C@H](Cc2c[nH]cn2)NC(=O)[C@H](CC(C)C)NC(=O)[C@H](C)NC1=O [Example 18, Cyclo[Leu-His-Asn-Leu-NH—(CH2)6—CO-Thr-Glu-Arg-Ile-Ala]] (cyclo(ALHNL[Ahp]TERI))	5.00 to 6.00
CCC[C@@H]1NC(=O)[C@H](C)NC(=O)[C@H](CCSC)NC(=O)[C@H](CCCNC(=N)N)NC(=O)[C@H](CCC(=O)O)NC(=O)[C@H]([C@@H](C)O)NC(=O)CCCCCCNC(=O)[C@H](CC(C)C)NC(=O)[C@H](CC(N)=O)NC(=O)[C@H](Cc2c[nH]cn2)NC1=O [Example 19, Cyclo[Nva-His-Asn-Leu-NH—(CH2)6—CO-Thr-Glu-Arg-Met-Ala]] (cyclo(A[Nva]HNL[Ahp]TERM))	> 6.00
CSCC[C@@H]1NC(=O)[C@H](CCCNC(=N)N)NC(=O)[C@H](CCC(=O)O)NC(=O)[C@H]([C@@H](C)O)NC(=O)CCCCCCNC(=O)[C@H](CC(C)C)NC(=O)[C@H](CC(N)=O)NC(=O)[C@H](Cc2c[nH]cn2)NC(=O)[C@H](C2CCCCC2)NC(=O)[C@H](C)NC1=O [Example 20, Cyclo[Chg-His-Asn-Leu-NH—(CH2)6—CO-Thr-Glu-Arg-Met-Ala]] (cyclo(A[Chg]HNL[Ahp]TERM))	5.00 to 6.00
CSCC[C@@H]1NC(=O)[C@H](CCCNC(=N)N)NC(=O)[C@H](CCC(=O)O)NC(=O)[C@H](Cc2c[nH]cn2)NC(=O)CCCCCCNC(=O)[C@H](CC(C)C)NC(=O)[C@H](CC(N)=O)NC(=O)[C@H](Cc2c[nH]cn2)NC(=O)[C@H](CC(C)C)NC(=O)[C@H](C)NC1=O [Example 21, Cyclo[Leu-His-Asn-Leu-NH—(CH2)6—CO-His-Glu-Arg-Met-Ala]] (cyclo(ALHNL[Ahp]HERM))	5.00 to 6.00
CSCC[C@@H]1NC(=O)[C@H](CCCNC(=N)N)NC(=O)[C@H](CCC(=O)O)NC(=O)[C@H](CC(N)=O)NC(=O)CCCCCCNC(=O)[C@H](CC(C)C)NC(=O)[C@H](CC(N)=O)NC(=O)[C@H](Cc2c[nH]cn2)NC(=O)[C@H](CC(C)C)NC(=O)[C@H](C)NC1=O [Example 22, Cyclo[Leu-His-Asn-Leu-NH—(CH2)6—CO-Asn-Glu-Arg-Met-Ala]] (cyclo(ALHNL[Ahp]NERM))	> 6.00
